Results from patent US20130274216A1 (priority 2012, published 2013).

Key:
[1] = tested on: Fusarium conidia infected murine cornea; experiment: In vivo murine fungal keratitis model, neutrophil infiltration of the infected cornea; parameters: species or system C57BL/6 mice; conditions: for neutrophil infiltration (neutrophils per 5 μm corneal section): 24 hours after infection, infected PBS or vehicle groups >200 neutrophils/section
Aspergillus flavus = type: in vivo, murine

Compound: COc1ccc(Nc2nc(-c3cccs3)nc3cn[nH]c23)cc1OC [Compound 1]
- neutrophil infiltration (neutrophils per 5 μm corneal section) ([1]; 0.1% w/v test group): < 100 neutrophils/section
- neutrophil infiltration (neutrophils per 5 μm corneal section) ([1]; 1% w/v test group): < 100 neutrophils/section
- neutrophil infiltration, effect in words ([1]; test groups vs infected PBS/vehicle groups, 24 hours, FIG. 2): dose-dependent reduction

Compound: C[C@@H]1C/C=C/C=C/C=C/C=C/[C@H](O[C@@H]2O[C@H](C)[C@@H](O)[C@H](N)[C@@H]2O)C[C@@H]2O[C@](O)(C[C@@H](O)C[C@H]3O[C@@H]3/C=C/C(=O)O1)C[C@H](O)[C@H]2C(=O)O [natamycin]
- reduction in CFUs/eye (Aspergillus flavus; 72 hours after infection with Aspergillus, dosed qid for 48 hours, control approximately 15000 CFUs/eye, FIG. 3B): ~50%
- Aspergillus infection evaluated by RFP expression (Aspergillus flavus; fluorescence micrographs of murine corneas 72 hours after infection, FIG. 3A): suppressed
